Reference: ChEMBL document CHEMBL3862008, “7-Chloro-4-aminoquinoline γ-hydroxy-γ-lactam derived-tetramates as a new family of antimalarial compounds” (Bioorg Med Chem Lett, 2016)
pIC50: −log10 of the molar value.

Tests used:
Plasmodium falciparum [1] = assay: Antimalarial activity against chloroquine-sensitive Plasmodium falciparum 3D7 infected in red blood cells after 72 hrs by SYBR green 1 staining based fluorometric assay; format: functional, cell-based; details: 3D7, 72 h
[2] = Stability of the compound in pH 7.4 solution up to 48 hrs; format: physicochemical; details: buffer, pH 7.4, 48 h
Plasmodium falciparum [3] = assay: Antimalarial activity against chloroquine-resistant Plasmodium falciparum W2 infected in red blood cells after 72 hrs by SYBR green 1 staining based fluorometric assay; format: functional, cell-based; details: W2, 72 h
[4] = Resistance index, ratio of IC50 for chloroquine-resistant Plasmodium falciparum W2 infected in red blood cells to IC50 for chloroquine-sensitive Plasmodium falciparum 3D7 infected in red blood cells; format: functional
[5] = Cytotoxicity against HUVEC assessed as decrease in cell viability at 0.01 to 50 umol/l after 24 hrs by trypan blue dye based assay; format: toxicity; details: human

SMILES | pIC50 (Plasmodium falciparum [1]) | Stability [2] | pIC50 (Plasmodium falciparum [3]) | Ratio IC50 [4] | Activity [5]
COC1=CC(=O)N(CCN(C)CCNc2ccnc3cc(Cl)ccc23)C1(O)Cc1ccc(C(F)(F)F)cc1 (stereo not given) | 7.85 | Stable | 7.47 | 2.4 | Non-Toxic
CN(CCNc1ccnc2cc(Cl)ccc12)CCN1C(=O)C=C(OCc2ccccc2)C1(O)Cc1ccccc1 (stereo not given) | 7.27 | Stable | 7.19 | 1.2 | Non-Toxic
O=C1C=C(OCc2ccccc2)C(O)(Cc2ccccc2)N1CCCNc1ccnc2cc(Cl)ccc12 (stereo not given) | 6.84 | – | 6.72 | 1.3 | –
CN(CCNc1ccnc2cc(Cl)ccc12)CCN1C(=O)C=C(OCc2ccccc2)C1(O)Cc1ccc(C(F)(F)F)cc1 (stereo not given) | 7.40 | Stable | 7.38 | 1 | Non-Toxic
COC1=CC(=O)N(CCCNc2ccnc3cc(Cl)ccc23)C1(O)Cc1ccccc1 (stereo not given) | 6.52 | – | 6.08 | 2.8 | –
COC1=CC(=O)N(CCCNc2ccnc3cc(Cl)ccc23)C1(O)Cc1ccc(C(C)(C)C)cc1 (stereo not given) | 7.04 | – | 6.67 | 2.3 | –
COC1=CC(=O)N(CCN2CCN(CCNc3ccnc4cc(Cl)ccc34)CC2)C1(O)Cc1ccc(C(F)(F)F)cc1 (stereo not given) | 7.72 | Stable | 7.80 | 0.8 | Non-Toxic
COC1=CC(=O)N(CCCNc2ccnc3cc(Cl)ccc23)C1(O)Cc1ccc(OC)c(OC)c1 (stereo not given) | 6.29 | – | 6.12 | 1.5 | –
COC1=CC(=O)N(CCCNc2ccnc3cc(Cl)ccc23)C1(O)Cc1ccc(F)cc1 (stereo not given) | 6.72 | – | 6.17 | 3.5 | –
O=C1C=C(OCc2ccccc2)C(O)(Cc2ccc(C(F)(F)F)cc2)N1CCCNc1ccnc2cc(Cl)ccc12 (stereo not given) | 7.44 | Stable | 7.44 | 1 | Non-Toxic
O=C1C=C(OCc2ccccc2)C(O)(Cc2ccc(F)cc2)N1CCCNc1ccnc2cc(Cl)ccc12 (stereo not given) | 7.38 | Stable | 7.24 | 1.4 | Non-Toxic
